Source: patent US20190010524A1, “BIOLOGICAL METHODS FOR PREPARING A FATTY DICARBOXYLIC ACID” (Verdezyne, Inc., priority 2012, published 2019)

Experiments:
[1] = tested on: Candida tropicalis strain (sAA496); assay: Fermentation of coconut oil to mixed diacids at different pH; type: cell-based; settings: coconut oil 80 g/L, 140 hours
Experimental: Autoclaved virgin coconut oil was added to the vessel to a final concentration of 80 g/L. A partially beta-oxidation blocked Candida tropicalis strain (sAA496) was inoculated to an initial OD600nm of 1.0 with a 5% inoculum and grown under the following conditions: 30° C. with shaking at about 1200 rpm, 1 vvm, initial pH 6.5 and initial volume of 1.0 L. The effect of pH on the distribution of fatty acid chain lengths was determined by manipulating the pH of the fermentation media. The pH of the fermentation was either 1) increased to pH 7.5 and controlled at that pH for the entire run, 2) allowed to drop-naturally due to the growth of the culture before controlling at pH 6.0 for the rest of the run; or 3) allowed to drop naturally due to the growth of the culture before controlling at pH 4.5 for the rest of the run. Samples were collected for GC analysis after 140 hours of fermentation time.

strain sAA1082 = assay: Production of DDDA from ethyl laurate or methyl laurate feedstock (Example 67); type: cell-based, Candida
Experimental: Methyl laurate feed rates varied as follows: 0.75 g/L-h for the first 24 h; 1.2 g/L-h from 24 h to termination. Ethyl laurate was fed at a rate of 0.75 gL-h for the first 24 h; 1.28 g/L-h from 24 h to termination. […] Also at induction a co-feed of dextrose was fed at a rate of either 1.25 g/L-h or 0.9 g/L-h. In TABLE 35, data from these two ethyl laurate fermentations were compared to similar data obtained from methyl laurate fermentations run under the same conditions.

[2] = tested on: Candida strain ATTC 20962; assay: Shake flask bioconversion of feedstocks of varying chain length (Example 72); type: cell-based; settings: ethyl esters 1% v/v, alkanes 3% v/v
Experimental: (§1) The bioconversion tests in this Example were undertaken following a shake flask protocol. […] The YPD contained 10 g/L yeast extract, 20 g/L peptone, and 20 g/L dextrose. These cultures were then placed in a 30° C. shaking incubator at 250 rpm for 18 to 20 hours.
(§2) After this growth phase, these cultures were used to inoculate 350 ml of SP92-glycerol media dispensed into 10-250 ml wide mouth flasks in 35 ml aliquots for each strain. The SP92-glycerol media contained 6.7 g/L yeast nitrogen base, 3 g/L yeast extract, 3 g/L ammonium sulfate, 1 g/L potassium phosphate monobasic; 1 g/L potassium phosphate, dibasic, and 75 g/L glycerol (Picataggio S., et al., Biotechnology (NY) 1992 August; 10 (8):894-8). The cultures were then placed in a 30° C. shaking incubator at 300 rpm for 20 to 24 hours.
(§3) The cells were then centrifuged for 5 minutes at 3000 rpm and the supernatant discarded. The cells were resuspended in DCA3 medium supplemented with 1.0% triton-X100. DCA3 is a 0.3 M potassium phosphate buffer, pH 7.5 containing 6.7 g/L yeast nitrogen base and 50 g/L glycerol. Variations of DCA3 media recipes are known, non-limiting examples of which include the addition of dextrose and/or glycerol, the like or combinations thereof. DCA3 media, as referred to herein, can include dextrose and/or glycerol. After re-suspension, the OD600 nm for each culture was adjusted to a common OD (based on the available OD for the strain with the least growth) and 10 ml was transferred to pre-weighed 250 ml bottom baffled shake flasks. The flasks were then reweighed to determine the starting weight of the culture. The substrate to be converted was then added at 1% v/v for ethyl esters and 3% v/v for alkanes. The increased amount of alkanes added was due to their volatility to ensure that sufficient substrate remained in solution for bioconversion. The flasks were weighed once more to determine the exact amount of substrate added to each flask and were then placed, in a 30° C. shaking incubator at 300 rpm for 4 hours. Bioconversion tests for ethyl-stearate and ethyl palmitate were performed at 35° C. due to melting point limitations for these substrates.
(§4) After 48 hours, the flasks were weighed once more to determine the weight of the final culture. The cultures were mixed well by swirling and 1 ml was transferred to a pre-weighed 15 ml falcon tube containing 0.8 ml of 6N HCl. The tube was weighed to determine the density of the final culture and this number used to determine the culture volume present at the final time point. Samples were submitted to analytical for analysis by GC.

sAA1082 = assay: as above; type: cell-based, Candida; settings: for Feedstock Yield (g diacid/g added feedstock) sAA-1082: shake flask, ethyl esters 1% v/v, alkanes 3% v/v
Experimental: as §1, §2, §3, §4

sAA2178 = assay: as above; type: cell-based, Candida; settings: for Feedstock Yield (g diacid/g added feedstock) sAA-2178: shake flask, ethyl esters 1% v/v, alkanes 3% v/v
Experimental: as §1, §2, §3, §4

[3] = dextrose co-feed rate 0.9 g/L-h
[4] = dextrose co-feed rate 1.25 g/L-h

Row | SMILES | Diacid composition (fraction of total diacids) ([1]; pH 4.5) | Diacid composition (fraction of total diacids) ([1]; pH 6.0) | Diacid composition (fraction of total diacids) ([1]; pH 7.5) | Feedstock Yield (g diacid/g added feedstock) ATTC-20962 [2] | % improvement over ATTC 20962 sAA-1082 (sAA1082) [%] | Feedstock Yield (g diacid/g added feedstock) sAA-1082 (sAA1082) | % improvement over ATTC 20962 sAA-2178 (sAA2178) [%] | Feedstock Yield (g diacid/g added feedstock) sAA-2178 (sAA2178) | other results
1 | O=C(O)CCCCC(=O)O [Adipic Acid] | 0.32 | 0.12 | 0.05 |  |  |  |  |  | 
2 | O=C(O)CCCCCCCCCCC(=O)O [C12 Diacid, dodecanedioic acid] | 0.00 | 0.03 | 0.16 |  |  |  |  |  | 
3 | CCCCCCCCCCCC(=O)OCC [Ethyl Laurate] |  |  |  |  |  |  |  |  | HFA (strain sAA1082; [3]): 2.48 g/L; Lauric Acid (strain sAA1082; [3]): 2.00 g/L; Productivity (g/L-h) (strain sAA1082; [3]): 0.832 g/L-h; HFA (strain sAA1082; [4]): 1.64 g/L; Lauric Acid (strain sAA1082; [4]): 0.71 g/L; Productivity (g/L-h) (strain sAA1082; [4]): 0.879 g/L-h; improvement in productivity over the methyl laurate fermentation with similar co-feed rate (strain sAA1082; higher dextrose feed): about 6%
4 | CCCCCCCCCCCCCCCC(=O)OCC [Ethyl palmitate] |  |  |  | 0.059 g diacid/g added feedstock | 41.8 | 0.084 g diacid/g added feedstock | 51.2 | 0.090 g diacid/g added feedstock | 
5 | CCCCCCCCCCCCCCCCCC(=O)OCC [Ethyl stearate] |  |  |  | 0.074 g diacid/g added feedstock | 14.5 | 0.085 g diacid/g added feedstock | 92.7 | 0.143 g diacid/g added feedstock | 
6 | CCCCCCCCCCCCCC(=O)OCC [Ethyl tetradecanoate] |  |  |  | 0.347 g diacid/g added feedstock | 16.5 | 0.404 g diacid/g added feedstock | 28.1 | 0.444 g diacid/g added feedstock | 
7 | CCCCCCCCCCCC(=O)OC [Methyl Laurate] |  |  |  |  |  |  |  |  | HFA (strain sAA1082; [3]): 3.31 g/L; Lauric Acid (strain sAA1082; [3]): 8.36 g/L; Productivity (g/L-h) (strain sAA1082; [3]): 0.638 g/L-h; HFA (strain sAA1082; [4]): 3.83 g/L; Lauric Acid (strain sAA1082; [4]): 3.88 g/L; Productivity (g/L-h) (strain sAA1082; [4]): 0.832 g/L-h
8 | O=C(O)CCCCCCCCC(=O)O [Sebacic Acid] | 0.00 | 0.10 | 0.17 |  |  |  |  |  | 
9 | O=C(O)CCCCCCC(=O)O [Suberic Acid] | 0.68 | 0.75 | 0.62 |  |  |  |  |  | 
